Data as given in ChEMBL document CHEMBL1133133, “Difluoroketones as inhibitors of matrix metalloprotease-13” (Bioorg Med Chem Lett, 2000).

Biological target: Collagenase 3 (Homo sapiens, UniProt P45452)
Assay: Inhibition of Matrix metalloprotease-13

SMILES	IC50
C=CCCC(=O)C(F)(F)c1ccc(Cc2ccccc2)cc1	> 30 µM
CNC(=O)[C@@H](NC(=O)C(CCc1ccccc1)CP(=O)(O)Cc1ccc(Cc2ccccc2)cc1)C(C)(C)C (some centres undefined)	0.014 µM
C=CC(CCc1ccccc1)CC(O)C(F)(F)c1ccc(Cc2ccccc2)cc1 (centres undefined)	27 µM
C=CC(CCc1ccccc1)CC(=O)C(F)(F)c1ccc(Cc2ccccc2)cc1 (centres undefined)	0.29 µM

More lines, now with the values ahead:

IC50	SMILES
5.1 µM	CNC(=O)C(NC(=O)C(CCc1ccccc1)CC(=O)C(F)(F)c1ccc(Cc2ccccc2)cc1)C(C)(C)C (centres undefined)
6.1 µM	O=C(C(CCc1ccccc1)CC(=O)C(F)(F)c1ccc(Cc2ccccc2)cc1)N1CCCCC1 (centres undefined)
12 µM	CNC(=O)C(NC(=O)CCC(=O)C(F)(F)c1ccc(Cc2ccccc2)cc1)C(C)(C)C (centres undefined)
> 30 µM	CNC(=O)C(NC(=O)C(CCc1ccccc1)CC(O)C(F)(F)c1ccc(Cc2ccccc2)cc1)C(C)(C)C (centres undefined)
> 30 µM	O=C(CCCCc1ccccc1)C(F)(F)c1ccc(Cc2ccccc2)cc1
